Assay results: US20260373176A1, “Compounds Targeting KRAS G12D Mutations and Their Uses” (InnoPharmaScreen Inc., priority 2023, published 2026)
“Also recorded” adds a separate entry of the source.

What was measured:
CRBN-KRAS G12D = target: T1, CRBN-KRAS G12D (Homo sapiens, UniProt P01116+Q96SW2, G12D); test: SPR ternary complex formation assay of CRBN-KRAS G12D-MG (1:1 Langmuir binding model)
T1 construct: His-tag (for the complex); purchased Abcam (KRAS G12D); R&D systems (CUL4A/RBX1/DDB1/CRBN complex) ab268712; E3-650
Procedure: (§1) CaCo-2 (ATTC), H1975 (CRL-5908) and LS-180 (CCL-187) cells were obtained from ATCC, expanded immediately, and frozen down. Vials were thawed and used within 20 passages. SNU-407, SNU-1033 and SK-LU-1 cells were obtained from Korean Cell Line Bank, expanded immediately, and frozen down. Vials were thawed and used within 20 passages. Caco-2 cells were cultured in MEM (Welgene, LM007-07) supplemented with 10% FBS GenDEPOT; cat. no. F0900-050) and 1% Antibiotic Antimycotic solution (Welgene; cat. No. LS203-01). H1975, SNU-407, SNU-1033 cells were cultured in RPMI (Welgene, LM011-03) supplemented with 10% FBS GenDEPOT; cat. no. F0900-050) and 1% Antibiotic Antimycotic solution (Welgene; cat. No. LS203-01). SK-LU-1 and LS-180 cells were cultured in DMEM (Welgene, LM001-05) supplemented with 10% FBS GenDEPOT; cat. no. F0900-050) and 1% Antibiotic Antimycotic solution (Welgene; cat. No. LS203-01). PBS (Welgene; cat. no. LB004-02) was used to wash cells and 0.25% Trypsin-EDTA (Welgene; cat. no. LS015-01) was used to detach cells for passaging. KRAS Mouse Monoclonal Antibody was purchased from Origene (cat. no. TA801672), anti-3-actin was purchased from AB Frontier (cat. no. LF-MA20055). […]
The injection was performed at a flow rate and for a contact time according to the Korea University Stem cell Lab guidelines. […] The sensorgrams were recorded using the embedded software imSPR-mini v 1.1.0. […]

KRAS WT = target: T2, KRAS WT (Homo sapiens, UniProt P01116+Q96SW2); test: Western blot analysis of KRAS WT degradation in Caco-2 cells; format: cell-based
T2 construct: molecular glue degradation via endogenous CRBN, western blot
Procedure: as §1, with “LS203-01).” for “LS203-01). PBS (Welgene; cat. no. LB004-02) was used to wash cells and 0.25% Trypsin-EDTA (Welgene; cat. no. LS015-01) was used to detach cells for passaging. KRAS Mouse Monoclonal Antibody was purchased from Origene (cat. no. TA801672), anti-3-actin was purchased from AB Frontier (cat. no. LF-MA20055).”
2.0×10^5 cells were seeded into 6-well plates (SPL; cat. no. 30006). […] Protein concentration of the supernatant was measured using a BCA reagent. […] Detection of bound antibodies was carried out using ECL reagents (KwikQuant #R1004) and bands were detected by ATTO Luminograph III Lite. The intensity of the KRAS band was quantified using ImageJ software and normalized to the intensity of GAPDH band.

[1] = test system: AsPC-1 pancreatic cancer cells; test: In vivo tumor growth, AsPC-1 xenograft mice; parameters: species or system mouse (BALB/c nu/nu nude mice)
Procedure: We have conducted the in vivo tumor growth assay using AsPC-1 pancreatic cancer cell-implanted xenograft animals by requesting Eins solution (Gwanggyo, Korea).
Experimental procedures that involved animals and their care were conducted in compliance with the Guide for the Care and Use of Laboratory Animals15 and ARRIVE guidelines. Animal experiments were approved by Animal Care and Use Committee of Woojung center for phenogenomics (Hwasung, Korea) and conducted at WoojungBio Inc. (Hwasung, Korea) in accordance with the guidelines. BA LB/C (nu/nu) nude mice of both genders aged 6 weeks and weighing 16-22 g were purchased from Nara biotech Co, Ltd. (Seoul, Korea). The mice were housed in a pathogen-free environment at a temperature of 25 °C and relative air humidity between 45 and 50%. All surgeries were performed in a sterile environment. To establish subcutaneous […] tumors, 1×10^6 AsPC-1 cells/100 μL were subcutaneously injected into the left groin region of BALB/nu nu male mice (7 weeks old; Nara Biotech Inc., Seoul, Korea). Immediately before treatment, IPS-06061 was dissolved in DMSO and then diluted tenfold in normal saline. Tumor-baring mice in vehicle control, IPS-06061 (low), and IPS-06061 (high) groups were injected intravenously with vehicle (1:10 DMSO to saline, v/v), 30 mg/kg IPS-06061 solution, or 80 mg/kg IPS-06061 solution, respectively, twice a week for 28 days (n=10 mice per major group) (FIG. 11). Tumor growth rate was recorded on day 7, 14, 21, and 28 by measuring the major and minor axes with a digital caliper. Measurements were transformed into tumor volumes using the formula tumor volume (mm^3)=major axis×minor axis^2×0.5. Tumor, liver, and kidneys were collected from major groups on day 28 within 3 h of the last injection and weighed. The tumors were subsequently frozen in liquid nitrogen and stored at −80 °C until homogenization for western blotting.
To confirm the anti-tumor effect of IPS-06061, we employed a xenograft mouse model implanting AsPC-1 pancreatic cancer cells. After the tumor volume had grown to approximately 100 mm^3, IPS-06061 was administered […] twice a week for 28 days. […] Toxicity was assessed by measuring body weight, food intake, complete blood cell count, and biochemical blood chemistry.

KRAS G12D [2] = test: KRAS G12D degradation in AsPC-1 xenograft mice; format: in vivo, mouse (BALB/c nu/nu nude mice); conditions: 80 mpk BiW, oral; at 28 days after treatment
[3] = Toxicity in AsPC-1 xenograft mice (body weight, food intake, blood count, blood chemistry); format: in vivo, mouse (BALB/c nu/nu nude mice)
Procedure: Experimental procedures that involved animals and their care were conducted in compliance with the Guide for the Care and Use of Laboratory Animals15 and ARRIVE guidelines. Animal experiments were approved by Animal Care and Use Committee of Woojung center for phenogenomics (Hwasung, Korea) and conducted at WoojungBio Inc. (Hwasung, Korea) in accordance with the guidelines. BA LB/C (nu/nu) nude mice of both genders aged 6 weeks and weighing 16-22 g were purchased from Nara biotech Co, Ltd. (Seoul, Korea). The mice were housed in a pathogen-free environment at a temperature of 25 °C and relative air humidity between 45 and 50%. All surgeries were performed in a sterile environment. To establish subcutaneous […] tumors, 1×10^6 AsPC-1 cells/100 μL were subcutaneously injected into the left groin region of BALB/nu nu male mice (7 weeks old; Nara Biotech Inc., Seoul, Korea). Immediately before treatment, IPS-06061 was dissolved in DMSO and then diluted tenfold in normal saline. […] Tumor growth rate was recorded on day 7, 14, 21, and 28 by measuring the major and minor axes with a digital caliper. […]
To confirm the anti-tumor effect of IPS-06061, we employed a xenograft mouse model implanting AsPC-1 pancreatic cancer cells. […] Toxicity was assessed by measuring body weight, food intake, complete blood cell count, and biochemical blood chemistry.

KRAS G12D [4] = target: T3, KRAS G12D (Homo sapiens, UniProt P01116+Q96SW2, G12D); test: Western blot analysis of KRAS G12D degradation in cells; format: cell-based; parameters: degradation by molecular glue via endogenous CRBN, western blot
Procedure: 2.0×10^5 cells were seeded into 6-well plates (SPL; cat. no. 30006). The next day, media was removed, and cells were treated with 0, 1, 5, 10, 50, 100 μM KRAS-MG in serum free media. For 24 h, 48 h, and 72 h. Cells were lysed using a RIPA buffer and clarified at 21,000×g for 15 min at 4 °C. Protein concentration of the supernatant was measured using a BCA reagent. (Thermofisher; cat. no. 23225) incubated at 37 °C for 30 mins. For each sample, equal amounts of protein were denatured and fractionated by Novex Wedge Well 4-20% Tris-Glycine Mini Gels (Invitrogen cat. no. XP04205BOX), and then transferred onto a Immobilon-PVDF Membrane membranes (Merck, cat. no. IPVH00010) at 80 V for 1 h at 4 °C. Membranes were blocked by placing them in a 5% BSA in Tris-buffered saline with Tween-20 (TBST; 20 mM Tris, 150 mM NaCl, 0.1% Tween-20) for 1 h. Membranes were then incubated overnight at 4 °C with primary antibodies against KRAS (1:1000, invitrogen: #703345), GAPDH (1:2000, Cell signaling #2118). After three washes with TBST, membranes were incubated with the appropriate HRP-conjugated secondary antibodies (1:1000, KwikQuant #R1006) for 1 hour RT. After three washing. Detection of bound antibodies was carried out using ECL reagents (KwikQuant #R1004) and bands were detected by ATTO Luminograph III Lite. The intensity of the KRAS band was quantified using ImageJ software and normalized to the intensity of GAPDH band.

KRAS G12D [5] = target: T3, KRAS G12D; test: IPS-Chip PPIExplorer solid-phase cell-free ubiquitination of KRAS G12D using CRBN; format: biochemical; parameters: His-tagged CUL4A/RBX1/DDB1/CRBN E3; UBE1 (E1) and UbcH5a/UBE2D1 (E2) as helper enzymes; conditions: in the presence of CRBN, E1, E2, ubiquitin and ATP
Procedure: as §1, with “passaging.” for “passaging. KRAS Mouse Monoclonal Antibody was purchased from Origene (cat. no. TA801672), anti-3-actin was purchased from AB Frontier (cat. no. LF-MA20055).”
The 0.2 mg/ml 6× His tag monoclonal antibody was diluted in 30% glycerol in 1×PBS, pH 7.4, was spotted onto the IPS-Chip for 16 h at 4 °C. […] To detect polyubiquitination signals, the chip was scanned using a GenePix Pro 6.0 (Axon Instruments, CA, USA), and the data analyzed with an Origin 6.1 (Originlab, MA, USA).

KRAS = conditions: PROTAC recruiting CRBN; cited from earlier work

| Structure (SMILES) | ternary complex formation / binding to KRAS G12D (CRBN-KRAS G12D; CRBN + KRAS G12D) | selectivity for KRAS G12D over KRAS WT (CRBN-KRAS G12D; KRAS G12D vs KRAS WT) | effect on degradation of KRAS WT (KRAS WT) | TGI ([1]; 80 mpk BiW, oral, AsPC-1 xenograft mice) | anti-cancer activity ([1]; AsPC-1 xenograft mice) | mean tumor growth vs vehicle ([1]; high dose 80 mpk, oral, twice a week for 28 days) | tumor weight ([1]; oral, twice a week for 28 days) | Maximum degradation (KRAS G12D [2]) | body weight effect ([3]; AsPC-1 xenograft mice, twice a week, 28 days) | decreases in weight and food intake ([3]; oral, twice a week for 28 days, vs vehicle group) | Dmax (KRAS G12D [4]; ASPC1, KRAS G12D degradation, AsPC-1 cells) | DC50 (KRAS G12D [4]; KRAS G12D degradation, AsPC-1 cells) | degradation of KRAS G12D (KRAS G12D [4]; western blot, AsPC-1 pancreatic cancer cells) | ubiquitination of KRAS G12D (KRAS G12D [5]) | poly-ubiquitination and degradation of KRAS (KRAS) |
| --- | --- | --- | --- | --- | --- | --- | --- | --- | --- | --- | --- | --- | --- | --- | --- |
| CCOC(=O)[C@H](CCc1ccccc1)N[C@@H](C)C(=O)c1ccccc1 [IPS-06061, ethyl (2S)-2-((1-oxo-1-phenylpropan-2-yl)amino)-4-phenylbutanoate] | binds specifically to KRAS G12D, forming a ternary complex | High selective for KRAS G12D | no effect on the degradation of KRAS WT; also recorded: without affecting KRAS Wild Type | ~ 100% | strong anti-cancer activity | remarkably reduced | significantly reduced tumor weight | > 75% | No body weight effect | such differences were not noted | > 90% | < 500 nM | Time-dependent degradation of KRAS G12D; also recorded: degrades KRAS G12D mutant | promoted the ubiquitination of KRAS G12D in a dose-dependent manner |  |
| C=C(F)C(=O)N1CCN(c2nc(OC[C@@H]3CCCN3CCCOCCC(=O)N[C@H](C(=O)N3C[C@H](O)C[C@H]3C(=O)NCc3ccc(-c4scnc4C)cc3)C(C)(C)C)nc3c2CCN(c2cccc4cccc(Cl)c24)C3)C[C@@H]1CC#N [LC2] |  |  |  |  |  |  |  |  |  |  |  |  |  |  | poly-ubiquitination of KRAS, thus proteosome-mediated degradation of the protein |
